# Reference: patent US20210261594A1, “USE OF AVERMECTIN DERIVATIVE FOR INCREASING BIOAVAILABILITY AND EFFICACY OF MACROCYLIC LACTONES” (INSTITUT NATIONAL DE RECHERCHE POUR L'AGRICULTURE, …, priority 2011, published 2021)
# Like-named read-outs stand apart in the source and are kept apart here. *1 amine or outer side, *2 acyl side, *3 side chain or, on linkers, in order; H or OH if unused. Where a SMILES comes first, the peptide text is derived from it. Bridges are numbered along the chain shown (N, C = ends). Roman numbers before positions name the chains, in order. [ ]: non-standard residue; d: D form. Actinocin(9to1) = Cc1c2oc3c(C)ccc(C(=O)[*:1])c3nc-2c(C(=O)[*:2])c(N)c1=O; NMeV = CN[C@H](C(=O)O)C(C)C; Sar = CNCC(=O)O
# Columns and labels:
# [1] = test system: multidrug resistant cells DC-3F/ADX; experiment: Reversal of actinomycin D resistance in DC-3F/ADX cells, MTT test; assay type: cell-based, Chinese hamster; conditions: for RF (IC50 for toxic drug alone/IC50 for toxic drug in the presence of compound): ActD; for RF (IC50 for toxic drug alone/IC50 for toxic drug in the presence of compound) / toxicity of actinomycin D when combined with the compound: compound at 5 μM
# Excerpt: (§1) Multidrug resistant tumor cells used in the present invention were Human lymphoma parental CEM and vinblastine-resistant CEM/VLB (Zordan-Nudpo et al., 1993) and parental […] and multidrug resistant cells DC-3F/ADX selected from spontaneously transformed DC-3F Chinese hamster lung fibroblasts on the basis of their resistance to actinomycin D (Biedler and Riehm, 1970). Both types of resistant cells overexpressed Pgp.
# (§2) CEM/VLB cells and DC-3F/ADX cells described in aforementioned part 1.3 were plated into 96 well plates and allowed to grow for 24 h. They were then incubated 4 days with vinblastine (concentration range 0-1 μM) with or without IVM at 2.5 μM or ivermectin aglycone (IVM-Agly) at 2.5 and at 5 μM (FIG. 7); or 2 days with actinomycin D with actinomycin (concentration range 0.01-10 μM) with or without ivermectin (IVM) or ivermectin aglycone (IVM-Agly) at 5 μM (FIG. 8). Cytotoxicity was determined using the MTT test. IC50 values were graphically determined and they represent the concentration needed for half cell survival. Fold reversal of multidrug resistance called reversion factors were the ratio of IC50 for toxic drug alone/IC50 for toxic drug in the presence of IVM-Agly.
# [2] = target: T1, rat GABA(A) receptor (α1, β2 and γ2 subunits) (Rattus norvegicus, UniProt P18508+P62813+P63138); experiment: GABA receptor affinity test, two-electrode voltage clamp in Xenopus oocytes; assay type: cell-based; conditions: for EC50: co-application with 2 μM GABA (EC10), Xenopus oocytes, read-out: EC50: concentration needed to induce half of the maximal potentiation of GABA effect; for agonist strength at GABA receptors, in words: compared to ivermectin
# T1 construct: expressed in transfected cells; host or cells: Xenopus laevis oocytes injected with RNA
# T1 sequence (P62813 28-455): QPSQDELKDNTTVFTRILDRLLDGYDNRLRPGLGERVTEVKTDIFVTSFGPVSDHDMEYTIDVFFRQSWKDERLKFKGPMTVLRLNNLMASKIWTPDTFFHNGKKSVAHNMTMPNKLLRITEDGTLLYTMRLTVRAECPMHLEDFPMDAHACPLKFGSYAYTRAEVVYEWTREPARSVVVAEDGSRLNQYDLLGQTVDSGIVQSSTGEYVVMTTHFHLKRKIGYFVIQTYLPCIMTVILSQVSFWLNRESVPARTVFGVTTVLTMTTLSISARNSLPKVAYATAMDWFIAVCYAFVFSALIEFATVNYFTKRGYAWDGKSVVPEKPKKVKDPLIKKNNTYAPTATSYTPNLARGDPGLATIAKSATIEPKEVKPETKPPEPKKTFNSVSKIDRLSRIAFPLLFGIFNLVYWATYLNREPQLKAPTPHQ
# T1 sequence (P63138 25-474 limits assumed): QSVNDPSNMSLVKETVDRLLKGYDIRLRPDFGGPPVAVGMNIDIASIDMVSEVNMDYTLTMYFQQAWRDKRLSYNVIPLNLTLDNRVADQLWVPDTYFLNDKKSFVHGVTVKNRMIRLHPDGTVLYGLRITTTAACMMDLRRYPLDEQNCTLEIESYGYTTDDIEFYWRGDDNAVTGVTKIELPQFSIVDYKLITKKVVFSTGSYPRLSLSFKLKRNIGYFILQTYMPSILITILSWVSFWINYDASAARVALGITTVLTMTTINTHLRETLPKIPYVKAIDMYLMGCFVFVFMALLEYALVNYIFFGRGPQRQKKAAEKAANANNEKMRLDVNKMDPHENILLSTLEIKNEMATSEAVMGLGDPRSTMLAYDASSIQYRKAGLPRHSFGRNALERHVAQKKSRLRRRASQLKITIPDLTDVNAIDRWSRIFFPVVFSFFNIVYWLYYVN
# T1 sequence (P18508 39-466): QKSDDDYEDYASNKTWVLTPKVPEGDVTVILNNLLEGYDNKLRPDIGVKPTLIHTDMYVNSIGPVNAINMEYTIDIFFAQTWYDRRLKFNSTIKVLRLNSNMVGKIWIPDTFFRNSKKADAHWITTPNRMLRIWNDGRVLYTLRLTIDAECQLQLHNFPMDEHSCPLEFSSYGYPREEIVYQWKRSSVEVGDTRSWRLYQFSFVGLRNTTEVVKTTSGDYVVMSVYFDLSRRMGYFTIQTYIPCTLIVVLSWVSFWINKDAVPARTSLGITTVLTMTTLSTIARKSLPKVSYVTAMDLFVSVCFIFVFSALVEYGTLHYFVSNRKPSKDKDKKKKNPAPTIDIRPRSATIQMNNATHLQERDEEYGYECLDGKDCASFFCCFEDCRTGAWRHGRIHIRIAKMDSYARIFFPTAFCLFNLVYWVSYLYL
# Description: The ability of ivermectin or moxidectin or ivermectin aglycone or ivermectin monosaccharide to interact with GABA receptors is assayed by electrophysiology measurements. Xenopus laevis oocytes are injected with 46 nl of RNA solution, with RNA coding for α1, β2 and γ2 subunits of the GABA channel at a ratio of 10:10:50 nM. The injected oocytes are incubated in modified Barth's solution [90 mM NaCl, 3 mM KCl, 0.82 mM MgSO4, 0.41 mM CaCl2, 0.34 mM Ca(NO3)2, 100 U/ml penicillin, 100 μg/ml streptomycin and 100 μg/ml kanamycin, 5 mM HEPES pH 7.6] at 18° C. for approximately 36 h before the measurements to ensure the expression of a functional receptor.
# Electrophysiological experiments are performed by the two-electrode voltage-clamp method. Measurements were done in ND96 medium containing 96 mM NaCl, 2 mM KCl, 1 mM […], 1.8 mM CaCl2 and 5 mM HEPES, pH 7.5, at a holding potential of −80 mV. The control current is evoked by the application of 2 μM GABA and the normalized relative potentiation of 2 μM GABA-evoked currents by increasing concentration of ivermectin, moxidectin, ivermectin aglycone, or ivermectin monosaccharide is determined as:
# [(IMLs+2 μM GABA/I2 μM GABA alone)/(I(MLs+2 μM GABA)Max/I2 μM GABA alone)]×100%
# where I2 μM GABA is the control current evoked by 2 μM GABA, IMLs+2 μM GABA is the current evoked by each drug concentration in co-applications with 2 μM GABA, and I(MLs+2 μM GABA)Max is the maximal current evoked by co-applications of drugs and 2 μM GABA. A washout period of 4 min between each GABA application is introduced, allowing receptors to recover from desensitization. Three different batches of oocytes are used to collect data for each analysis. The perfusion system is cleaned between two experiments by washing with 10% DMSO after application of MLs derivatives to avoid contamination.
# Mdr1ab−/− mice = experiment: In vivo toxicity test in Pgp-deficient mice; conditions: mouse, sc
# Description: Wild-type and the Pgp knock-out mdr1ab^−/− mice with a FVB genetic background were obtained from Taconic (NY, USA). In rodents, there are two Pgps encoded by abc1a and abc1b genes and mdr1ab^−/− mice were deficient for the two gene products. Mice were housed at INRA's transgenic rodent facility at 22±2° C. under 12-hour light/dark cycles. Animals sampling was designed to reduce the influence of interfering parameters such as litter specificity (seven to nine different litters for a ten animals group). Mice received a standard chow diet recommended for the breeding and rearing of rodents (Harlan Teklad TRM Rat/Mouse Diet; Harlan Teklad, Gannat, France). Water and food were available ad libitum. In vivo studies were conducted in mice under European laws on the protection of animals and protocols are performed under procedure and principal for good clinical practice.
# Toxicity of ivermectin and ivermectin aglycone is measured in Pgp-deficient mice. Mdr1ab^−/− mice are injected subcutaneously with increasing doses of ivermectin or ivermectin aglycone formulated in propylene glycol/[…] (60:40, v/v). Higher injected doses are 1.5 mg/kg (1.7 μmol/kg) for ivermectin and 16 mg/kg (27 μmol/kg) for ivermectin aglycone, respectively. Toxicity is evaluated during 24 h. […]
# murine Pgp (mdr1a) = target: T2, murine Pgp (mdr1a) (Mus musculus, UniProt P21447); experiment: Rhodamine 123 transport test in LLC-PK1-mdr1a cells overexpressing murine Pgp; assay type: cell-based; conditions: LLCPK1-mdr1a cells; for Cmax: concentration to obtain maximum inhibitory effect / Emax: maximum effect compared to maximum effect obtained with 5 μM of valspodar: rhodamine 123
# T2 construct: expressed in transfected cells; host or cells: LLC-PK1 pig kidney epithelial cells (LLC-PK1-mdr1a), available in the INRA laboratory
# T2 sequence (P21447 whole entry): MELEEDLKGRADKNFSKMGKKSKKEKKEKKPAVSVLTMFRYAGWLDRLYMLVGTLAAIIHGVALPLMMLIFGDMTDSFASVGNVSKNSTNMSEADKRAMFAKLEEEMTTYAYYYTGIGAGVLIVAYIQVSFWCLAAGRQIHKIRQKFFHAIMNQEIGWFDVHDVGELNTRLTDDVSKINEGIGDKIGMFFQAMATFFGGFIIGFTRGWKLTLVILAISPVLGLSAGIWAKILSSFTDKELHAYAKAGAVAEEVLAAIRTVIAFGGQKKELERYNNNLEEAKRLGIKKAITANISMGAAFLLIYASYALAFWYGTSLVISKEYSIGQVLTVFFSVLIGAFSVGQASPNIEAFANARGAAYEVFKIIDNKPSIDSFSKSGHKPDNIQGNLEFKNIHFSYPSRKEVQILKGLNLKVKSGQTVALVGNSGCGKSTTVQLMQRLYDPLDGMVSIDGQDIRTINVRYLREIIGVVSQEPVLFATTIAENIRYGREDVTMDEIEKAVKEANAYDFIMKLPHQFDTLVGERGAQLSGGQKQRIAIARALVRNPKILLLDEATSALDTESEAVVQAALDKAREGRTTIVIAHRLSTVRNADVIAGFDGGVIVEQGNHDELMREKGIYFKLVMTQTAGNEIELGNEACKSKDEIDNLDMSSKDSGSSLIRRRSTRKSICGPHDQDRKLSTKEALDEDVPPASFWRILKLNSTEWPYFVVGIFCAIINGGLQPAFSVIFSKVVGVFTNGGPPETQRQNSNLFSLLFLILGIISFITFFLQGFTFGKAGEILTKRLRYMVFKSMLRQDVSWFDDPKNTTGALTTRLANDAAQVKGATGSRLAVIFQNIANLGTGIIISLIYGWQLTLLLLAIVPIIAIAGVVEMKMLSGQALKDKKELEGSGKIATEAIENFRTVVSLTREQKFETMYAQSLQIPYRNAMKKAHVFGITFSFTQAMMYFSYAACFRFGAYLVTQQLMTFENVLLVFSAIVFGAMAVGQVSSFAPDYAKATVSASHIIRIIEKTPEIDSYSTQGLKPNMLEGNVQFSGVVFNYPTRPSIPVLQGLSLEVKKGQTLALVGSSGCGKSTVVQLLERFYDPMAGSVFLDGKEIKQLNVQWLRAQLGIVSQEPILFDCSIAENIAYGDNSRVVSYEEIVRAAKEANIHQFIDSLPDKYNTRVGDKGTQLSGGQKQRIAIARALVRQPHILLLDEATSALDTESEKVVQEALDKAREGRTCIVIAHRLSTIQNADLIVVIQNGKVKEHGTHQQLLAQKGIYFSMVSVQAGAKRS
# Description: (§3) The cells used were LLC-PK1, pig kidney epithelial cell lines, and LLC-PK1-mdr1a which are recombinant LLC-PK1 cells overexpressing murine abcb1a gene. All cell lines are available in INRA laboratory. The transfected cell line LLC-PK1-HcPgpA, which overexpress nematode Haemonchus contortus PgpA, was developed by R. Prichard (McGill University). Cells were cultured in medium 199 supplemented with penicillin (100 units/ml), streptomycin ([…]), 10% of foetal calf serum and geneticin G418 (400 mg/1) as selecting compound for the LLC-PKI-mdr1a and LLC-PK1-HcPgpA cells. All compounds and medium are from Invitrogen, Cergy Pontoise, France. Cells were seeded on 24-well plates (Sarstedt, Orsay, France) at 2×10^5 cells/well in G418-free medium until confluence for transport activity and on 96-well plates for viability assay.
# (§4) Cells were cultured with rhodamine 123 (10 μM, purchased from Sigma) with or without valspodar (VSP, […]). Compounds of interest were dissolved in DMSO and diluted in the medium (final DMSO concentration=0.1%) in a concentration range of 0.1-50 μM. After the 2-h incubation period, the cells were lysed and lysates were stored at −20° C. until analysis. To study the Pgp transport activity, the intracellular accumulation of fluorescent Rho 123 was determined by reading fluorescence in the cell lysates with a spectrofluorimeter (PerkinElmer LS50B, max excitation=507 nm; max emission=529 nm). Protein concentration was determined in lysates with BCA kit using bovine serum albumin as protein standard (Thermo scientific) Results were expressed as fluorescence arbitrary units after normalization to cellular protein content per well.
# [3] = test system: Caenorhabditis elegans resistant to ivermectin (IVR10); experiment: Ivermectin resistance gravid assay in Caenorhabditis elegans IVR10; assay type: in vivo; conditions: for RF: C. elegans IVR10, IC50 IVM alone / IC50 IVM with reversal agent; for effect of the agent alone on the development of C. elegans: verapamil at 8 μM, IVM-Agly at 10 ng/ml
# Description: A gravid assay method, based on the development of eggs to gravid adults over a 96 hr incubation period, was used to determine the resistance with respect to ivermectin (IVM) in C. elegans. The eggs were collected through rinsing the C. elegans worms resistant to IVM (IVR10). Sixty eggs were incubated/well, in standard conditions for four days (96 hours) in order reach adulthood (gravid) in the presence of drugs as followed: ivermectin aglycone (IVM-Agly) alone at 10 ng/ml (11.4 nM); verapamil (VRP) alone at 8 μM; IVM alone: […]; IVM+VRP 8 μM: 0, 1, 2, 4, 6, 8, 10, 20 ng/ml IVM; IVM+IVM-Agly 10 ng/ml: 0, 1, 2, 4, 6, 8, 10, 20 ng/ml ([…]) IVM. Assays were performed in triplicates per condition treatment and the experiment was performed 3 times.
# [4] = target: nematode Haemonchus contortus PgpA (HcPgpA) (Haemonchus contortus, UniProt O61301); experiment: Rhodamine 123 transport test in LLC-PK1-HcPgpA cells overexpressing nematode Pgp; assay type: cell-based; conditions: for EC50: LLC-PK1-HcPgpA cells, read-out: EC50, concentration of half inhibitory effect, Nematode PgpA
# Sequence of nematode Haemonchus contortus PgpA (HcPgpA) (O61301 entry or part of it): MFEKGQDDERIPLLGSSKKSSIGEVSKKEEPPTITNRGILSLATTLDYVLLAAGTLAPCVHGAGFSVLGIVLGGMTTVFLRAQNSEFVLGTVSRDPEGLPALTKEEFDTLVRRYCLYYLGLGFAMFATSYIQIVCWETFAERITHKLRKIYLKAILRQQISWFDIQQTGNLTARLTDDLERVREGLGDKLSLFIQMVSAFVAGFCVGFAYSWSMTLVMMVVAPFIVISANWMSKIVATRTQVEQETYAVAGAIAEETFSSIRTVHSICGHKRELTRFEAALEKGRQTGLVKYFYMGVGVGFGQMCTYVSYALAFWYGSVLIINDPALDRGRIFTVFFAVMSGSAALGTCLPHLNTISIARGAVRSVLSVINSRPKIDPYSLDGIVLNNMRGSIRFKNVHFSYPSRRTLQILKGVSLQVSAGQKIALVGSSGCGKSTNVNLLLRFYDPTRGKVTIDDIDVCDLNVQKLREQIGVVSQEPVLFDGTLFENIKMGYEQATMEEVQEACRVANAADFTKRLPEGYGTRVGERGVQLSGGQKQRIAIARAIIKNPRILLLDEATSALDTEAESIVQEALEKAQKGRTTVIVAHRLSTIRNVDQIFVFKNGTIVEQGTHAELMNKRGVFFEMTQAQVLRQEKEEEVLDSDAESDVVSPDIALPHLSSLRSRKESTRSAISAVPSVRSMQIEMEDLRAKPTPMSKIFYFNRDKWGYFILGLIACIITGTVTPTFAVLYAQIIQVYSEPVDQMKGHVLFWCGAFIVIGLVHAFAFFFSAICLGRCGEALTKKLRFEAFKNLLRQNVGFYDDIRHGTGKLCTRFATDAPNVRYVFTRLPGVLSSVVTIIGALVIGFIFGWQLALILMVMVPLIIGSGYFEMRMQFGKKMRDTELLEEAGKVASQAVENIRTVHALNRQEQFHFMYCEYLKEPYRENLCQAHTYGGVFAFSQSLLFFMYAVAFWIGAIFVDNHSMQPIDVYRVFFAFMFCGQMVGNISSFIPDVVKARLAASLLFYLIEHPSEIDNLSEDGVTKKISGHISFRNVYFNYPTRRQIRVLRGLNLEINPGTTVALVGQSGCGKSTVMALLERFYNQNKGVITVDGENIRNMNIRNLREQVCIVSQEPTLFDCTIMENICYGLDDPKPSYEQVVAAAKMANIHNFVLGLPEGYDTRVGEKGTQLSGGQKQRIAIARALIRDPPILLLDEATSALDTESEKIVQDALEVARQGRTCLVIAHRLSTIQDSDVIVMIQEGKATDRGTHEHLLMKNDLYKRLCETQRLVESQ
# Description: as §3, §4
# [5] = test system: Human lymphoma parental CEM cells; experiment: Vinblastine cytotoxicity in parental CEM cells, MTT test; assay type: cell-based; conditions: at concentrations below 0.001 μM
# Excerpt: as §1, §2
# [6] = test system: vinblastine-resistant CEM/VBL cells; experiment: Reversal of vinblastine resistance in CEM/VBL cells, MTT test; assay type: cell-based, Human; conditions: 1 μM vinblastine
# Excerpt: as §1, §2
# [7] = Table 2, read-out: EC50, concentration of half inhibitory effect, Murine Pgp
compound,measurement,setting,value
"Cc1c2oc3c(C)ccc(C(=O)N[C@@H]4C(=O)N[C@H](C(C)C)C(=O)N5CCC[C@H]5C(=O)N(C)CC(=O)N(C)[C@@H](C(C)C)C(=O)O[C@@H]4C)c3nc-2c(C(=O)N[C@@H]2C(=O)N[C@H](C(C)C)C(=O)N3CCC[C@H]3C(=O)N(C)CC(=O)N(C)[C@@H](C(C)C)C(=O)O[C@@H]2C)c(N)c1=O [ActD, actinomycin D] (I: T[dV]P[Sar][NMeV] / II: T[dV]P[Sar][NMeV]; ester I:1-I:C, II:1-II:C; linker I:N-II:N via Actinocin(9to1))",DC-3F/ADX viability with actinomycin D alone,[1]; 1 μM actinomycin D,not altered
same,IC50,"[1]; DC-3F/ADX cells, MTT, read-out: IC50 of actinomycin D alone",5000 nM
CCC(C)C1OC2(CCC1C)CC1CC(CC=C(C)C(OC3CC(OC)C(O)C(C)O3)C(C)C=CC=C3COC4C(O)C(C)=CC(C(=O)O1)C34O)O2 (stereo not shown) [IVM Monosaccharide],EC50,[2],122 nM
same,"agonist strength at GABA receptors, in words",[2],weak agonist
"CCC(C)C1OC2(CCC1C)CC1CC(CC=C(C)C(O)C(C)C=CC=C3COC4C(O)C(C)=CC(C(=O)O1)C34O)O2 (stereo not shown) [Ivermectin aglycone, 22,23-dihydroavermectin B1 aglycone]",toxicity in words,Mdr1ab−/− mice,does not show any toxicity
same,EC50,[2],215 nM
same,"agonist strength at GABA receptors, in words",[2],weak agonist
same,Cmax: concentration to obtain maximum inhibitory effect,murine Pgp (mdr1a),10.0 µM
same,Emax: maximum effect compared to maximum effect obtained with 5 μM of valspodar,murine Pgp (mdr1a),80.0 % valspodar ®
same,Cmax: concentration to obtain maximum inhibitory effect,murine Pgp (mdr1a); listed as ivermectin aglycone,about 10 μM
same,EC50,"murine Pgp (mdr1a); Table 1, read-out: EC50: effective concentration for inhibiting 50% of transport of rhodamine 123 by murine Pgp",1000 nM
same,EC50,murine Pgp (mdr1a); [7],2500 nM
same,RF,[3],1.5
same,effect of the agent alone on the development of C. elegans,[3],had no effects
same,RF (IC50 for toxic drug alone/IC50 for toxic drug in the presence of compound),[1]; DC-3F/ADX cells,62
same,toxicity of actinomycin D when combined with the compound,[1]; DC-3F/ADX cells,became toxic
same,EC50,[4],500 nM
same,inhibitory potency for parasite HcPgpA relative to mammalian Pgp,"[4]; ratio of EC50 murine Pgp / HcPgpA, 120 min",5 times
"CO/N=C1\C[C@]2(C[C@@H]3C[C@@H](C/C=C(\C)C[C@@H](C)/C=C/C=C4\CO[C@@H]5[C@H](O)C(C)=C[C@@H](C(=O)O3)[C@]45O)O2)O[C@H](/C(C)=C/C(C)C)[C@H]1C [MOX, moxidectin]",EC50,[2],5.6 ± 1.5 nM
"CC[C@]1(O)C[C@@H]2CN(CCc3c([nH]c4ccccc34)[C@@](C(=O)OC)(c3cc4c(cc3OC)N(C)[C@H]3[C@@](O)(C(=O)OC)[C@H](OC(C)=O)[C@]5(CC)C=CCN6CC[C@]43[C@@H]65)C2)C1 [VBL, vinblastine]",sensitivity of parental cells to VBL,[5],highly sensitive
same,viability of CEM/VBL cells in vinblastine alone,[6],fully viable
COc1ccc(CCN(C)CCCC(C#N)(c2ccc(OC)c(OC)c2)C(C)C)cc1OC (stereo not shown) [verapamil],RF,[3],2.1
same,effect of the agent alone on the development of C. elegans,[3],had no effects
ivermectin,EC50,[2]; listed as IVM,29.3 ± 3.4 nM
same,EC50,[2],29 nM
same,Cmax: concentration to obtain maximum inhibitory effect,murine Pgp (mdr1a),5.0 µM
same,Emax: maximum effect compared to maximum effect obtained with 5 μM of valspodar,murine Pgp (mdr1a),88.0 % valspodar ®
same,EC50,murine Pgp (mdr1a); [7],500 nM
same,IC50 of IVM alone,"[3]; C. elegans IVR10, egg to gravid adult, 96 h",6.8 ± 0.2 ng/mL
same,IC50,"[3]; C. elegans IVR10, egg to gravid adult, 96 h, read-out: IC50 of IVM alone",7.8 ± 0.2 nM
same,concentration blocking the development of C. elegans IVR10 eggs,[3]; IVM alone,~10 nM
same,RF (IC50 for toxic drug alone/IC50 for toxic drug in the presence of compound),[1]; DC-3F/ADX cells,45
same,toxicity of actinomycin D when combined with the compound,[1]; DC-3F/ADX cells,became toxic
same,EC50,[4],600 nM
